Data reported in patent US7601847B2, “Preparation and purification of 4-(indazol-3-yl)phenols” (Wyeth, priority 2004, dated 2009).
In brackets after ≈: the same amount, converted by molar mass.

Test: relative solubility in a mixture of methanol and water
Format: physicochemical
Settings: mixture of methanol and water (57:43 v/v); for solubility: methanol/water mixture (57:43 v/v), aqueous with cosolvent or surfactant or cyclodextrin

| SMILES | solubility | difference in solubility in favor of the impurity (VI vs compound I) |
| --- | --- | --- |
| C=CCn1nc(-c2ccc(O)cc2O)c2cccc(C(F)(F)F)c21 [I, 4-[1-allyl-7-(trifluoromethyl)-1H-indazol-3-yl]benzene-1,3-diol] | 6 mg/mL (≈ 17.9 mM) |  |
| C=CCn1nc2c(C(F)(F)F)cccc2c1-c1ccc(O)cc1O [VI] | 140 mg/mL (≈ 419 mM) | 20 × |
